Literature values in patent US11039615B2, “Methods of processing chlorhexidine-containing polymerizable compositions and antimicrobial articles formed thereby” (entrotech life sciences, inc., priority 2014, dated 2021).

Settings: documented in Ranganathan 1996

- temperature at which chlorhexidine decomposes to PCA: ≥ 40 °C
Structure (SMILES): [H]/N=C(\N/C(=N/[H])NCCCCCCNC(=N)NC(=N)Nc1ccc(Cl)cc1)Nc1ccc(Cl)cc1 [chlorhexidine]
